The values that follow are results of earlier work, collected in patent US20240165036A1, “ENCAPSULATED VITAMIN D” (Nulixir Inc., priority 2022, published 2024).

Each structure is given as a SMILES string.

For the series the following is noted: reference phases water and n-octanol; pH=7 unless stated otherwise.
As a reminder, the log P is the decadic logarithm of the partition coefficient of the neutral form, usually between octanol and water. `Cn1cnc2c1c(=O)[nH]c(=O)n2C` [theobromine]: the “log P” value was roughly −0.78. With `N[C@@H](Cc1ccccc1)C(=O)O` [L-phenylalanine], the “log P” value is roughly −1.38.

Regarding `CCNC(=O)CC[C@H](N)C(=O)O` [L-theanine], the “log P” value is roughly −3. On to `O=C(/C=C/c1ccccc1)N1CCCC1` [(E)-1-cinnamoylpyrrolidine], for which the “log P” value is roughly 2.2. `NCCCC(=O)O` [GABA, gamma-aminobutyric acid]: the “log P” value is recorded as roughly −3.

`N[C@@H](Cc1c[nH]c2ccc(O)cc12)C(=O)O` [Dispersion 5-HTP, 5-hydroxytryptophan]: the “log P” value is roughly −2.

Take `COc1ccc(/C=C/c2cc(OC)cc(=O)o2)cc1` [yangonin]: the “log P” value is reported as roughly 2.8.

For the molecule `COc1cc(O)c2c(=O)c(OC)c(-c3ccc(O)cc3)oc2c1` [kumatakenin], the “log P” value is listed as roughly 2.5.

For `O=C(O)c1cc(C(=O)O)c2c(n1)C(=O)C(=O)c1cc(C(=O)O)[nH]c1-2` [PQQ, pyrroloquinoline quinone], the “log P” value is reported as roughly 0.4.
